# According to patent US20180282415A1, “Combination of a PD-1 Axis Binding Antagonist and an ALK Inhibitor for Treating ALK-Negative Cancer” (Merck Patent GmbH, priority 2015, published 2018):
# B1: Avelumab: fully human IgG1 antibody that recognizes both human and mouse PD-L1 (antibody, V domains shown)
# VH: EVQLLESGGGLVQPGGSLRLSCAASGFTFSSYIMWVRQAPGKGLEWVSSIYPSGGITFYADKGRFTISRDNSKNTLYLQMNSLRAEDTAVYYCARIKLGTVTTVDYWGQGTLVTVSS
# VL: QSALTQPASVSGSPGQSITISCTGTSSDVGGYNYVSWYQQHPGKAPKLMIYDVSNRPSGVSNRFSGSKSGNTASLTISGLQAEDEADYYCSSYTSSSTRVFGTGTKVTVL
# Assays:
# CT26 colon carcinoma = test: In vivo tumor efficacy, CT26 model, crizotinib or alectinib with anti-PD-L1 (Example 3); set-up: species or system Balb/c mice
# Excerpt: (§1) CT26 colon carcinoma cell line has published mutanome and transcriptome data, with no known ALK fusion events or oncogenic mutations. Castle et al, BMC Genomics, 15:190 (13 Mar. 2014); Castle et al, CAN 11:3722 (11 Jan. 2012).
# (§2) Six- to eight-week old female Balb/c or C57BL/6 mice were purchased from The Jackson Laboratories.
# CT26 cell lines, anti-PD-L1 antibody and Rat IgG isotypes (IgG2a and IgG2b) were purchased from BioXCell (clones 2A3 and LTF2, respectively) and prepared as described in Example 2 above. […]
# MC38 colon carcinoma [1] = test: In vivo tumor efficacy, MC38 model, crizotinib with anti-PD-L1 (Example 3); set-up: species or system C57BL/6 mice; conditions: crizotinib 40 mg/kg, anti-mPDL1 10 mg/kg
# Method: as §1, §2
# MC38 colon carcinoma cell line was kindly provided by Dr. Antoni Ribas at UCLA, California. Cells were cultured in DMEM medium supplemented with 10% fetal bovine serum, and 100 I.U./mL penicillin/streptomycin at 37° C. in an atmosphere of 5% CO2 in air, and IMPACT-tested for pathogens at Research Animal Diagnostic Laboratory (RADIL) (Columbia, Mo.). Pathogen-free cells growing in an exponential growth phase were harvested and used for tumor inoculation.
# For the MC38 study, C57BL/6 mice were inoculated subcutaneously in the right lower flank with 0.2×10^6 MC38 colon carcinoma cells. When tumor bearing mice achieved a mean tumor volume of 50 to 150 mm^3, mice were randomly assigned to 1 of 4 treatment groups, n=10.
# MC38 colon carcinoma [2] = test: In vivo tumor efficacy, MC38 model, crizotinib with avelumab (Example 5); set-up: species or system C57BL/6 mice; conditions: for Tumor Volume (Mean ± SEM): avelumab 20 mg/kg i.p., crizotinib 40 mg/kg orally QD; for TGI: compared with the isotype control antibody treated group, avelumab 20 mg/kg, crizotinib 40 mg/kg
# Method: Avelumab is a fully human IgG1 antibody that recognizes both human and mouse PD-L1. […] Six- to eight-week old female C57BL/6 mice were purchased from The Jackson Laboratories (Farmington, Conn.). Mice were maintained and all animal experiments were conducted according to the protocols approved by the Institutional Animal Care and Use Committee of Rinat, South San Francisco and Worldwide Research and Development (WRD), La Jolla, Pfizer Inc. MC38 colon carcinoma cell line was kindly provided by Dr. Antoni Ribas at UCLA, California. Cells were cultured in DMEM medium supplemented with 10% fetal bovine serum, and 100 I.U./mL penicillin/streptomycin at 37° C. in an atmosphere of 5% CO2 in air, and IMPACT-tested for pathogens at Research Animal Diagnostic Laboratory (RADIL) (Columbia, Mo.). Pathogen-free cells growing in an exponential growth phase were harvested and used for tumor inoculation. […] Human IgG1 was prepared in-house (Lot No. NB123249p192CA110124). […] Body weight was recorded weekly. […] Mice were monitored for tumor growth and body weight changes.
# [3] = system: CD3/CD28-stimulated effector cells (T cells from healthy donors' PBMCs); test: T cell proliferation assay (3H thymidine incorporation), CD3/CD28-stimulated T cells; assay type: cell-based, human; conditions: for Thymidine incorporation(CPM): log[Agonist]
# Excerpt: (§3) Briefly, human cells were isolated from healthy donors' PBMCs by using EasySep™ Human T Cell Enrichment Kit (Stemcell Technologies) according to manufacturer's instruction. […] Culture supernatants were collected on Day 2 or 3 for cytokine analysis. Plates were then harvested on DNA specific filter papers (Perkin Elmer) using Harvester96 (Tomtec Life Sciences). The radiolabeled filters were covered with beta scintillation liquid (Perkin Elmer) and read in Microbeta® counter plates (Perkin Elmer). ^3H Thymidine was pulsed on Day 2 for T cell proliferation assay.
# activated T cells = test: T cell viability, Cell-Titer Glo Luminescent Cell Viability Assay; assay type: cell-based, human; conditions: for Luciferase RLU (T cell viability): log[Agonist]
# Method: as §3, with “instruction. […] Cells were cultured in RPMI 1640 medium supplemented with 10% FCS and 100 I.U./mL penicillin/streptomycin in humidified incubator at 37° C. with 5% CO2.” for “instruction.”, “assay. The impact by sunitinib and axitinib on T cell proliferation and viability were repeated as previously published (FIGS. 1A and 1B).” for “assay.”
# Cell viability was measured by Cell-Titer Glo Luminescent Cell Viability Assay® (Promega, Madison). […] Table 4 below provides the Luciferase RLU values reflecting T cell viability for each of the respective inhibitors.
molecule,measurement,setting,value
"C[C@@H](Oc1cc(-c2cnn(C3CCNCC3)c2)cnc1N)c1c(Cl)ccc(F)c1Cl [crizotinib, 3-[(1R)-1-(2,6-dichloro-3-fluorophenyl)ethoxy]-5-(1-piperidin-4-ylpyrazol-4-yl)pyridin-2-amine]",Tumor Volume (Mean ± SEM),"CT26 colon carcinoma; Day 7, crizotinib 5 mg/kg (alone or with anti-mPDL1)",90.3 ± 8.1 mm^3
same,Tumor Volume (Mean ± SEM),"CT26 colon carcinoma; Day 7, crizotinib 20 mg/kg (alone or with anti-mPDL1)",90.3 ± 8.0 mm^3
same,Tumor Volume (Mean ± SEM),"CT26 colon carcinoma; Day 7, crizotinib 40 mg/kg (alone or with anti-mPDL1)",94.4 ± 7.9 mm^3
same,Tumor Volume (Mean ± SEM),"CT26 colon carcinoma; Day 10, crizotinib 5 mg/kg (alone or with anti-mPDL1)",140.9 ± 18.0 mm^3
same,Tumor Volume (Mean ± SEM),"CT26 colon carcinoma; Day 10, crizotinib 20 mg/kg (alone or with anti-mPDL1)",156.1 ± 21.9 mm^3
same,Tumor Volume (Mean ± SEM),"CT26 colon carcinoma; Day 10, crizotinib 40 mg/kg (alone or with anti-mPDL1)",127.0 ± 9.8 mm^3
same,Tumor Volume (Mean ± SEM),"CT26 colon carcinoma; Day 14, crizotinib 5 mg/kg (alone or with anti-mPDL1)",246.6 ± 54.7 mm^3
same,Tumor Volume (Mean ± SEM),"CT26 colon carcinoma; Day 14, crizotinib 20 mg/kg (alone or with anti-mPDL1)",234.2 ± 49.0 mm^3
same,Tumor Volume (Mean ± SEM),"CT26 colon carcinoma; Day 14, crizotinib 40 mg/kg (alone or with anti-mPDL1)",218.5 ± 31.5 mm^3
same,Tumor Volume (Mean ± SEM),"CT26 colon carcinoma; Day 18, crizotinib 5 mg/kg (alone or with anti-mPDL1)",407.1 ± 122.2 mm^3
same,Tumor Volume (Mean ± SEM),"CT26 colon carcinoma; Day 18, crizotinib 20 mg/kg (alone or with anti-mPDL1)",299.3 ± 67.1 mm^3
same,Tumor Volume (Mean ± SEM),"CT26 colon carcinoma; Day 18, crizotinib 40 mg/kg (alone or with anti-mPDL1)",319.6 ± 47.7 mm^3
same,Tumor Volume (Mean ± SEM),"CT26 colon carcinoma; Day 22, crizotinib 5 mg/kg (alone or with anti-mPDL1)",749.8 ± 220.0 mm^3
same,Tumor Volume (Mean ± SEM),"CT26 colon carcinoma; Day 22, crizotinib 20 mg/kg (alone or with anti-mPDL1)",631.3 ± 158.5 mm^3
same,Tumor Volume (Mean ± SEM),"CT26 colon carcinoma; Day 22, crizotinib 40 mg/kg (alone or with anti-mPDL1)",685.3 ± 101.1 mm^3
same,Tumor Volume (Mean ± SEM),"CT26 colon carcinoma; Day 25, crizotinib 5 mg/kg (alone or with anti-mPDL1)",1161.1 ± 415.4 mm^3
same,Tumor Volume (Mean ± SEM),"CT26 colon carcinoma; Day 25, crizotinib 20 mg/kg (alone or with anti-mPDL1)",934.9 ± 223.8 mm^3
same,Tumor Volume (Mean ± SEM),"CT26 colon carcinoma; Day 25, crizotinib 40 mg/kg (alone or with anti-mPDL1)",1074.5 ± 136.2 mm^3
same,Anti-tumor effect in CT26 model,CT26 colon carcinoma; compared to isotype control or single agents,no anti-tumor effects
same,Tumor Volume (Mean ± SEM),MC38 colon carcinoma [1]; Day 7,78.1 ± 6.0 mm^3
same,Tumor Volume (Mean ± SEM),MC38 colon carcinoma [1]; Day 14,169.7 ± 16.3 mm^3
same,Tumor Volume (Mean ± SEM),MC38 colon carcinoma [1]; Day 19,291.7 ± 26.2 mm^3
same,Tumor Volume (Mean ± SEM),MC38 colon carcinoma [1]; Day 24,580.5 ± 67.0 mm^3
same,Tumor Volume (Mean ± SEM),MC38 colon carcinoma [1]; Day 27,836.5 ± 137.8 mm^3
same,Tumor Volume (Mean ± SEM),MC38 colon carcinoma [2]; Day 7,78.1 ± 6.0 mm^3
same,Tumor Volume (Mean ± SEM),MC38 colon carcinoma [2]; Day 14,169.7 ± 16.3 mm^3
same,Tumor Volume (Mean ± SEM),MC38 colon carcinoma [2]; Day 19,291.7 ± 26.2 mm^3
same,Tumor Volume (Mean ± SEM),MC38 colon carcinoma [2]; Day 24,580.5 ± 67.0 mm^3
same,Tumor Volume (Mean ± SEM),MC38 colon carcinoma [2]; Day 27,836.5 ± 137.8 mm^3
same,TGI,MC38 colon carcinoma [2],48.5%
same,Effect on T cell proliferation,"[3]; activated T cells, FIG. 1A",did not have adverse effects on T cell proliferation
same,Thymidine incorporation(CPM),[3]; μM: 0,432360.3 ± 29488.63 CPM
same,Thymidine incorporation(CPM),[3]; μM: 1,436099.3 ± 34171.33 CPM
same,Thymidine incorporation(CPM),[3]; μM: 2,270672.7 ± 18298.53 CPM
same,Thymidine incorporation(CPM),[3]; μM: −1,438641 ± 47103.88 CPM
same,Thymidine incorporation(CPM),[3]; μM: −2,442995.3 ± 42508.08 CPM
same,Thymidine incorporation(CPM),[3]; μM: −3,421221.3 ± 24333.6 CPM
same,Effect on T cell viability,activated T cells; FIG. 1B,did not result in dose-dependent decreases in T cell viability
same,Luciferase RLU (T cell viability),activated T cells; μM: 0,94.22 ± 1.814 RLU
same,Luciferase RLU (T cell viability),activated T cells; μM: 1,91.72 ± 2.354 RLU
same,Luciferase RLU (T cell viability),activated T cells; μM: 2,64.24 ± 3.748 RLU
same,Luciferase RLU (T cell viability),activated T cells; μM: 3,1.474 ± 0.1693 RLU
same,Luciferase RLU (T cell viability),activated T cells; μM: −1,95.6927 ± 1.827 RLU
same,Luciferase RLU (T cell viability),activated T cells; μM: −2,93.68 ± 1.564 RLU
same,Luciferase RLU (T cell viability),activated T cells; μM: −3,89.08 ± 2.843 RLU
"CCc1cc2c(cc1N1CCC(N3CCOCC3)CC1)C(C)(C)c1[nH]c3cc(C#N)ccc3c1C2=O [Alectinib, alectinib]",Tumor Volume (Mean ± SEM),"CT26 colon carcinoma; Day 7, alectinib study, alectinib 60 mg/kg, anti-mPDL1 10 mg/kg",119.1 ± 12.5 mm^3
same,Tumor Volume (Mean ± SEM),"CT26 colon carcinoma; Day 14, alectinib study, alectinib 60 mg/kg, anti-mPDL1 10 mg/kg",293.4 ± 54.2 mm^3
same,Tumor Volume (Mean ± SEM),"CT26 colon carcinoma; Day 19, alectinib study, alectinib 60 mg/kg, anti-mPDL1 10 mg/kg",546.8 ± 98.0 mm^3
same,Tumor Volume (Mean ± SEM),"CT26 colon carcinoma; Day 24, alectinib study, alectinib 60 mg/kg, anti-mPDL1 10 mg/kg",1114.2 ± 217.0 mm^3
same,Tumor Volume (Mean ± SEM),"CT26 colon carcinoma; Day 27, alectinib study, alectinib 60 mg/kg, anti-mPDL1 10 mg/kg",1892.5 ± 283.1 mm^3
"CCN(CC)CCNC(=O)c1c(C)[nH]c(/C=C2\C(=O)Nc3ccc(F)cc32)c1C [Sunitinib, sunitinib]",Thymidine incorporation(CPM),[3]; μM: 0,493570.3 ± 59347.45 CPM
same,Thymidine incorporation(CPM),[3]; μM: 1,332 ± 105.9733 CPM
same,Thymidine incorporation(CPM),[3]; μM: 2,117.3333 ± 16.23 CPM
same,Thymidine incorporation(CPM),[3]; μM: 3,171 ± 25 CPM
same,Thymidine incorporation(CPM),[3]; μM: −1,468847.7 ± 39073.88 CPM
same,Thymidine incorporation(CPM),[3]; μM: −2,444679.3 ± 13911.18 CPM
same,Thymidine incorporation(CPM),[3]; μM: −3,469071 ± 48070.7 CPM
same,Luciferase RLU (T cell viability),activated T cells; μM: 0,98.24 ± 2.169 RLU
same,Luciferase RLU (T cell viability),activated T cells; μM: 1,13.95 ± 7.493 RLU
same,Luciferase RLU (T cell viability),activated T cells; μM: 2,0.8502 ± 0.2596 RLU
same,Luciferase RLU (T cell viability),activated T cells; μM: 3,1.827 RLU
same,Luciferase RLU (T cell viability),activated T cells; μM: −1,91.57 ± 2.195 RLU
same,Luciferase RLU (T cell viability),activated T cells; μM: −2,98.04 ± 2.634 RLU
same,Luciferase RLU (T cell viability),activated T cells; μM: −3,96.57 ± 1.711 RLU
B1,Tumor Volume (Mean ± SEM),MC38 colon carcinoma [2]; Day 7,78.3 ± 5.4 mm^3
same,Tumor Volume (Mean ± SEM),MC38 colon carcinoma [2]; Day 14,145.5 ± 11.0 mm^3
same,Tumor Volume (Mean ± SEM),MC38 colon carcinoma [2]; Day 19,307.1 ± 25.5 mm^3
same,Tumor Volume (Mean ± SEM),MC38 colon carcinoma [2]; Day 24,535.0 ± 62.0 mm^3
same,Tumor Volume (Mean ± SEM),MC38 colon carcinoma [2]; Day 27,817.7 ± 87.2 mm^3
same,TGI,MC38 colon carcinoma [2],49.7%
